Measured values published in PubChem BioAssay (NCI).
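Step 1: Grow cells in 96-well plates. Step 2: Expose to compound for 48 hours at 5 concentrations. Step 3: Interpolate endpoints linearly; if unreached, use highest concentration. Definition used: TGI = concentration required for complete inhibition of growth.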

Key:
Experiment in all cases: NCI-60 cell line screen, 48 h
UO-31 renal = tested on: UO-31 renal
UACC-62 melanoma = tested on: UACC-62 melanoma
SK-MEL-5 melanoma = tested on: SK-MEL-5 melanoma
LOX IMVI melanoma = tested on: LOX IMVI melanoma
SF-295 CNS = tested on: SF-295 CNS
NCI-H23 lung = tested on: NCI-H23 lung
NCI-H460 lung = tested on: NCI-H460 lung
HT29 colon = tested on: HT29 colon
A498 renal = tested on: A498 renal
OVCAR-5 ovarian = tested on: OVCAR-5 ovarian
ACHN renal = tested on: ACHN renal
NCI-H226 lung = tested on: NCI-H226 lung
T-47D breast = tested on: T-47D breast
MDA-N = tested on: MDA-N
HOP-92 NSCLC = tested on: HOP-92 NSCLC
SF-268 CNS = tested on: SF-268 CNS
MDA-MB-231 breast = tested on: MDA-MB-231 breast
MCF7 breast = tested on: MCF7 breast
A549 NSCLC = tested on: A549 NSCLC
SK-MEL-2 melanoma = tested on: SK-MEL-2 melanoma
PC-3 prostate = tested on: PC-3 prostate
HCC-2998 colon = tested on: HCC-2998 colon
IGROV1 ovarian = tested on: IGROV1 ovarian
TK-10 renal = tested on: TK-10 renal
DU-145 prostate = tested on: DU-145 prostate
HS 578T breast = tested on: HS 578T breast
COLO 205 colon = tested on: COLO 205 colon
RPMI-8226 leukemia = tested on: RPMI-8226 leukemia
HOP-62 NSCLC = tested on: HOP-62 NSCLC
K-562 leukemia = tested on: K-562 leukemia
NCI/ADR-RES ovarian = tested on: NCI/ADR-RES ovarian
SK-OV-3 ovarian = tested on: SK-OV-3 ovarian
OVCAR-3 ovarian = tested on: OVCAR-3 ovarian
NCI-H522 lung = tested on: NCI-H522 lung
RXF 393 renal = tested on: RXF 393 renal
CAKI-1 renal = tested on: CAKI-1 renal
EKVX NSCLC = tested on: EKVX NSCLC
OVCAR-8 ovarian = tested on: OVCAR-8 ovarian
SK-MEL-28 melanoma = tested on: SK-MEL-28 melanoma
MALME-3M melanoma = tested on: MALME-3M melanoma
SF-539 CNS = tested on: SF-539 CNS
M14 melanoma = tested on: M14 melanoma
CCRF-CEM leukemia = tested on: CCRF-CEM leukemia
SR leukemia = tested on: SR leukemia
KM12 colon = tested on: KM12 colon
UACC-257 melanoma = tested on: UACC-257 melanoma
SNB-19 CNS = tested on: SNB-19 CNS
MDA-MB-435 = tested on: MDA-MB-435
U251 CNS = tested on: U251 CNS
OVCAR-4 ovarian = tested on: OVCAR-4 ovarian
HL-60(TB) leukemia = tested on: HL-60(TB) leukemia
SNB-75 CNS = tested on: SNB-75 CNS
SW-620 colon = tested on: SW-620 colon
MOLT-4 leukemia = tested on: MOLT-4 leukemia
HCT-15 colon = tested on: HCT-15 colon
SN12C renal = tested on: SN12C renal
HCT-116 colon = tested on: HCT-116 colon
786-0 renal = tested on: 786-0 renal

Nc1[nH]nc(Nc2ccc(Cl)cc2)c1P(=O)(c1ccccc1)c1ccccc1
TGI (UO-31 renal): > 100 µM | TGI (UACC-62 melanoma): 56.4 µM | TGI (SK-MEL-5 melanoma): 67.7 µM | TGI (LOX IMVI melanoma): > 100 µM | TGI (SF-295 CNS): 44.5 µM | TGI (NCI-H23 lung): > 100 µM | TGI (NCI-H460 lung): > 100 µM | TGI (HT29 colon): 65.2 µM | TGI (A498 renal): > 100 µM | TGI (OVCAR-5 ovarian): 45.6 µM | TGI (ACHN renal): > 100 µM | TGI (NCI-H226 lung): 50.2 µM | TGI (T-47D breast): > 100 µM | TGI (MDA-N): 47.4 µM | TGI (HOP-92 NSCLC): 70.8 µM | TGI (SF-268 CNS): 33.8 µM | TGI (MDA-MB-231 breast): 49.8 µM | TGI (MCF7 breast): > 100 µM | TGI (A549 NSCLC): > 100 µM | TGI (SK-MEL-2 melanoma): 43.1 µM | TGI (PC-3 prostate): 61.1 µM | TGI (HCC-2998 colon): 60.2 µM | TGI (IGROV1 ovarian): 55.2 µM | TGI (TK-10 renal): > 100 µM | TGI (DU-145 prostate): 86.5 µM | TGI (HS 578T breast): 37.2 µM | TGI (COLO 205 colon): > 100 µM | TGI (RPMI-8226 leukemia): > 100 µM | TGI (HOP-62 NSCLC): 49.1 µM | TGI (K-562 leukemia): > 100 µM | TGI (NCI/ADR-RES ovarian): 52.3 µM | TGI (SK-OV-3 ovarian): > 100 µM | TGI (OVCAR-3 ovarian): 41.5 µM | TGI (NCI-H522 lung): 48.5 µM | TGI (RXF 393 renal): 53.9 µM | TGI (CAKI-1 renal): > 100 µM | TGI (EKVX NSCLC): > 100 µM | TGI (OVCAR-8 ovarian): 46.4 µM | TGI (SK-MEL-28 melanoma): 64.9 µM | TGI (MALME-3M melanoma): 47.9 µM | TGI (SF-539 CNS): 42.6 µM | TGI (M14 melanoma): 54.6 µM | TGI (CCRF-CEM leukemia): 86.1 µM | TGI (SR leukemia): > 100 µM | TGI (KM12 colon): 37.5 µM | TGI (UACC-257 melanoma): > 100 µM | TGI (SNB-19 CNS): 92.4 µM | TGI (MDA-MB-435): 42.8 µM | TGI (U251 CNS): > 100 µM | TGI (OVCAR-4 ovarian): 80.8 µM | TGI (HL-60(TB) leukemia): 82.3 µM | TGI (SNB-75 CNS): 51.8 µM | TGI (SW-620 colon): > 100 µM | TGI (MOLT-4 leukemia): > 100 µM | TGI (HCT-15 colon): 98.4 µM

c1ccc2c(c1)c1c(n2CCOCCN2CCCC2)CCCC1
TGI (UO-31 renal): 43.2 µM | TGI (UACC-62 melanoma): 33.7 µM | TGI (SK-MEL-5 melanoma): 30.3 µM | TGI (LOX IMVI melanoma): 33.9 µM | TGI (SF-295 CNS): > 100 µM | TGI (NCI-H23 lung): 65.2 µM | TGI (SN12C renal): 33.6 µM | TGI (NCI-H460 lung): 30.5 µM | TGI (HT29 colon): 47.5 µM | TGI (OVCAR-5 ovarian): 35.3 µM | TGI (ACHN renal): 42.1 µM | TGI (NCI-H226 lung): 49.5 µM | TGI (T-47D breast): 61.9 µM | TGI (MDA-N): 35.8 µM | TGI (HCT-116 colon): 32.5 µM | TGI (HOP-92 NSCLC): 86.9 µM | TGI (SF-268 CNS): > 100 µM | TGI (MDA-MB-231 breast): 31 µM | TGI (MCF7 breast): 31.3 µM | TGI (A549 NSCLC): > 100 µM | TGI (SK-MEL-2 melanoma): 30.7 µM | TGI (PC-3 prostate): 66 µM | TGI (HCC-2998 colon): 30.2 µM | TGI (IGROV1 ovarian): 56.4 µM | TGI (TK-10 renal): 37 µM | TGI (DU-145 prostate): 87.2 µM | TGI (786-0 renal): 29.6 µM | TGI (HS 578T breast): 45.3 µM | TGI (COLO 205 colon): 38.2 µM | TGI (RPMI-8226 leukemia): 42.2 µM | TGI (HOP-62 NSCLC): 28.9 µM | TGI (K-562 leukemia): 31.5 µM | TGI (NCI/ADR-RES ovarian): 44.3 µM | TGI (SK-OV-3 ovarian): 87.7 µM | TGI (OVCAR-3 ovarian): > 100 µM | TGI (CAKI-1 renal): 96.9 µM | TGI (EKVX NSCLC): 75.2 µM | TGI (OVCAR-8 ovarian): 57.6 µM | TGI (SK-MEL-28 melanoma): 29.4 µM | TGI (MALME-3M melanoma): 31.3 µM | TGI (SF-539 CNS): 29.9 µM | TGI (M14 melanoma): 29.5 µM | TGI (CCRF-CEM leukemia): 51 µM | TGI (SR leukemia): 35.2 µM | TGI (UACC-257 melanoma): 53 µM | TGI (MDA-MB-435): 33.8 µM | TGI (U251 CNS): 25.8 µM | TGI (OVCAR-4 ovarian): 73.8 µM | TGI (HL-60(TB) leukemia): 30.4 µM | TGI (SNB-75 CNS): 76 µM | TGI (SW-620 colon): 32.1 µM | TGI (MOLT-4 leukemia): 34.3 µM | TGI (HCT-15 colon): 31.2 µM
